Laboratory results from PMC8778314, “A New Series of Indeno[1,2-c]pyrazoles as EGFR TK Inhibitors for NSCLC Therapy” (Molecules, 2022).

Legend:
[1] = test system: A549 human lung adenocarcinoma cells; experiment: MTT cell viability assay, A549 cells; details: A549, 72 h, read-out: IC50 (µM) A549 Cells
Description: (§2) In experiments, K562 cells and PBMCs were cultured in 24-well and 96-well plates (Asahi Glass Co., Chiba, Japan) at 4 × 10^4 and 1 × 10^6 cells/mL concentrations, respectively, for 48 h. A549 cells were plated (24-well plate) at 1 × 10^4 cells/mL and incubated for 72 h (the optimal cell number was determined in our previous studies) [34, 35, 36]. The stock solutions of the compounds and erlotinib in concentrations ranging from 1 µM to 10 mM were prepared in DMSO (Wako Pure Chemical Industries, Osaka, Japan) and further diluted with fresh culture medium. The final DMSO concentration was adjusted as 1%, which had no effect on the cell viability [37].
(§3) Then, supernatants were discarded, and the formazan crystals were solubilized with a 100 μL DMSO addition. The absorbance of the solution was measured using an Infinite M1000 microplate reader (Tecan, Grödig, Austria) at a wavelength of 570 and 630 nm.

[2] = test system: K562 chronic myelogenous leukemia (CML) cells; experiment: MTT cell viability assay, K562 cells; details: Homo sapiens, K562, 48 h, read-out: IC50 (µM) K562 Cells
Description: as §2, §3

[3] = test system: peripheral blood mononuclear cells (PBMCs); experiment: MTT cell viability assay, PBMCs; details: for IC50: PBMC, 48 h, read-out: IC50 (µM) PBMCs; for cytotoxicity towards PBMCs (in words): MTT, normal cells
Description: as §2, §3

A549 cells = experiment: Annexin V/ethidium homodimer III staining assay (apoptosis); type: cell-based, human; details: IC50 concentrations, 15 h
Description: Then, an apoptotic/necrotic cell detection kit (PromoKine, Heidelberg, Germany) was used according to manufacturer′s instructions with some modifications. Briefly, the cells were washed twice with 1× binding buffer, a staining solution containing 50 μL of 1× binding buffer, 5 μL of FITC-Annexin V solution, and 5 μL of ethidium homodimer III solution, and treated for 30 min at room temperature in a protected-light environment. After washing of cells in 1× binding buffer, cells were analyzed under a Biorevo BZ-9000 all-in-one fluorescence microscope (Keyence, Osaka, Japan). The number of apoptotic cells, late apoptotic or necrotic cells, and necrotic cells was quantified as previously described.

HER2 = target: T1, HER2 (Homo sapiens, UniProt P04626); experiment: Kinase selectivity profiling TK-1, HER2; type: biochemical; details: 30 µM concentration
T1 construct: purchased Promega Corporation
T1 sequence (P04626 23-1255): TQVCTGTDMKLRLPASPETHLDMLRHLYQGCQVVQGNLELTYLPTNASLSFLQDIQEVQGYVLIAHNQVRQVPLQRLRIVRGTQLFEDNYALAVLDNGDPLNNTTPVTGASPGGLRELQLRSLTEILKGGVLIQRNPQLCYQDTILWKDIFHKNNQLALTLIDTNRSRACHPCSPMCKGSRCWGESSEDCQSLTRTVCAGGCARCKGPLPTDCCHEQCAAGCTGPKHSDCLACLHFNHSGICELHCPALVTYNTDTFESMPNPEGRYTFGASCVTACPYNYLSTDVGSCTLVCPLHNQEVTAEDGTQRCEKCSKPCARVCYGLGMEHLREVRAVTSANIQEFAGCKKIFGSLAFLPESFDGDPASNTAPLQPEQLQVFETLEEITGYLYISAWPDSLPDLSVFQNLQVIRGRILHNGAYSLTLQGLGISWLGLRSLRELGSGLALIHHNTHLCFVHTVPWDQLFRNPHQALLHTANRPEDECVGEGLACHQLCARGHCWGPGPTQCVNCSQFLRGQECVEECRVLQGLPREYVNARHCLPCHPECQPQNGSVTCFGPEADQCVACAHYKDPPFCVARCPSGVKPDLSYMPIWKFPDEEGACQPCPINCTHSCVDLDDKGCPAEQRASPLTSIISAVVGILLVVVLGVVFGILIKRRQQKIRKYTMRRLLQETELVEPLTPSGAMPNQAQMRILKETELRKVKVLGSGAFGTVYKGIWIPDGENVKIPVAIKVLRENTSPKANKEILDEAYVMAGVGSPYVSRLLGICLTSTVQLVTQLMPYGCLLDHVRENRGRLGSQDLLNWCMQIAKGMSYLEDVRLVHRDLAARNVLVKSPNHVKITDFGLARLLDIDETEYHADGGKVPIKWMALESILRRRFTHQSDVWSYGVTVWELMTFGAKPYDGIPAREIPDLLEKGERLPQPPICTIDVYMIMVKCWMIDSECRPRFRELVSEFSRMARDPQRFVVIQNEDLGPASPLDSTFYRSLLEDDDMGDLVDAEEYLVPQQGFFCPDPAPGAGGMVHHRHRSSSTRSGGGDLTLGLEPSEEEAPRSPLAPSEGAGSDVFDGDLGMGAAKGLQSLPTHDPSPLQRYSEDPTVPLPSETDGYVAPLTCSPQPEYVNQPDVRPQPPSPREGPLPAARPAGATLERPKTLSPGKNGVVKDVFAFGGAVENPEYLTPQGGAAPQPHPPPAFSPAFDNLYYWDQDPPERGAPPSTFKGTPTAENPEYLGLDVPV
Description: (§1) Manufacturer′s instructions (Promega Corporation, Madison, WI, USA) were applied for the kinase profiling assay protocol (TK-1 and TK-2) with small changes. According to this protocol, the kinase stocks in the kinase strips and their substrate stocks in the substrate strips were diluted with 95 µL of 2.5× kinase buffer and 15 µL of 100 µM ATP solutions, respectively. The kinase working stocks (2 µL), 2 µL of the ATP/substrate working stocks, and 1 µL of the tested compound solution (3–100 µM) and erlotinib solution (0.01–100 µM) or 5% DMSO solution in the 384-well plate were used for the kinase reactions. Following the 4 h of incubation at room temperature, the activity of kinases was screened by means of the ADP-Glo Kinase Assay (Promega Corporation, Madison, WI, USA) based on the manufacturer′s protocol. The Infinite M1000 microplate reader (Tecan, Grödig, Austria) was used to measure the kinase inhibitory effects of the compounds in a dose-response manner. Besides, the IC50 values of the tested compounds were determined using ImageJ software.

LCK = target: T2, LCK (Homo sapiens, UniProt P06239); experiment: Kinase selectivity profiling TK-2, LCK; type: biochemical; details: 30 µM concentration
T2 construct: purchased Promega Corporation
T2 sequence (P06239 whole entry): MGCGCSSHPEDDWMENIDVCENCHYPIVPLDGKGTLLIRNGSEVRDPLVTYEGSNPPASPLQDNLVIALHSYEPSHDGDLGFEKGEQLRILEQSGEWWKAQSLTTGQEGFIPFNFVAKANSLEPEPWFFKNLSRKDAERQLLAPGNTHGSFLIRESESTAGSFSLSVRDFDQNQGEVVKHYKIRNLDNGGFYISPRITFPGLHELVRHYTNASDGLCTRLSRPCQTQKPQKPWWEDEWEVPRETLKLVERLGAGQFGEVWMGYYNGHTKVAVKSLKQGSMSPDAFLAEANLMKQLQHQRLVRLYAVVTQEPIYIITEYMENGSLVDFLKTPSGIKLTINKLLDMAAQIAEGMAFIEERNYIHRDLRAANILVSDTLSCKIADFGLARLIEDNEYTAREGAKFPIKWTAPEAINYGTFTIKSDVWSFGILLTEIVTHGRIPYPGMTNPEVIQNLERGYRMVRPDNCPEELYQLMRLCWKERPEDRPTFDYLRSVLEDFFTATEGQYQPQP
Description: as §1

EGFR TK = target: T3, EGFR TK (Homo sapiens, UniProt P00533); experiment: EGFR TK inhibition, kinase profiling / ADP-Glo Kinase Assay; type: biochemical; details: 4 h incubation at room temperature
T3 construct: purchased Promega Corporation
T3 sequence (P00533 25-1210): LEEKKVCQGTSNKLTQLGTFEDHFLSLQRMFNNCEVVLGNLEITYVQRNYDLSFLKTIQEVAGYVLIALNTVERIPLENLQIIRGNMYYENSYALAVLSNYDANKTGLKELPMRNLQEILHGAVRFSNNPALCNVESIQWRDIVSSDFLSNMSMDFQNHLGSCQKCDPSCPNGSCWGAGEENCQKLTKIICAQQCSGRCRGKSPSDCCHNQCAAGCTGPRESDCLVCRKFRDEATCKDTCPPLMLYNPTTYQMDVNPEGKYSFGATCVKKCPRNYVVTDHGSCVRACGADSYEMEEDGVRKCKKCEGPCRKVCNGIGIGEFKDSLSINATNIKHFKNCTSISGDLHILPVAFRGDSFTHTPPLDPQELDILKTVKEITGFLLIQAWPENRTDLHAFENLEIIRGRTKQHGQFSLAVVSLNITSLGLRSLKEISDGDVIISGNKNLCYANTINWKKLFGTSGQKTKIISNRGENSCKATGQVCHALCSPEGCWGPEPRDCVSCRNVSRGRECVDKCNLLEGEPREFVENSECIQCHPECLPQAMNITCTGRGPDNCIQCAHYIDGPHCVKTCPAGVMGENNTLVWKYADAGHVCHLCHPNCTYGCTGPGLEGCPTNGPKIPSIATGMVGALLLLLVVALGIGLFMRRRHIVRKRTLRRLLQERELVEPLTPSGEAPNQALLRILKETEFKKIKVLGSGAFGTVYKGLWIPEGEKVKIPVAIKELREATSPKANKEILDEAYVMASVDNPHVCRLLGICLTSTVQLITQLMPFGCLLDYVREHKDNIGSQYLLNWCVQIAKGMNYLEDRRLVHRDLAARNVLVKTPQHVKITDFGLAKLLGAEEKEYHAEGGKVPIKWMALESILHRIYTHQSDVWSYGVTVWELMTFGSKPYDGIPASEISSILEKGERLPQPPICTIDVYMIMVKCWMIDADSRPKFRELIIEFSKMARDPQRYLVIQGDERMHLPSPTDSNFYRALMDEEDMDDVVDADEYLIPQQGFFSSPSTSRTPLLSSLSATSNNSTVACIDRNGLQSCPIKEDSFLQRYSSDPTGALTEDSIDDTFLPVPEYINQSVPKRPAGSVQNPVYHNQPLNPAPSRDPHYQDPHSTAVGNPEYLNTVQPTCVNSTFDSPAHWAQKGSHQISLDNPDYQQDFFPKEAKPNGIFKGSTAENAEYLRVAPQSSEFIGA
Description: Manufacturer′s instructions (Promega Corporation, Madison, WI, USA) were applied for the kinase profiling assay protocol (TK-1 and TK-2) with small changes [40, 41, 42]. […] The kinase working stocks (2 µL), 2 µL of the ATP/substrate working stocks, and 1 µL of the tested compound solution (3–100 µM) and erlotinib solution (0.01–100 µM) or 5% DMSO solution in the 384-well plate were used for the kinase reactions. Following the 4 h of incubation at room temperature, the activity of kinases was screened by means of the ADP-Glo Kinase Assay (Promega Corporation, Madison, WI, USA) based on the manufacturer′s protocol. The Infinite M1000 microplate reader (Tecan, Grödig, Austria) was used to measure the kinase inhibitory effects of the compounds in a dose-response manner. Besides, the IC50 values of the tested compounds were determined using ImageJ software.

melting point [°C] | IC50 [1] [µM] | IC50 [2] [µM] | HER2 inhibition compared to erlotinib (HER2) | LCK inhibition compared to erlotinib (LCK) | IC50 (EGFR TK) [µM] | Structure (SMILES) | IC50 [3] [µM] | percentage of A549 cells undergoing apoptosis (A549 cells) [%] | cytotoxicity towards PBMCs (in words) [3]
116 to 117 | > 10 |  |  |  |  | COc1cc2c(cc1Cl)Cc1c-2nn(-c2ccc(S(C)(=O)=O)cc2)c1-c1ccc(N2CCCCC2)cc1 [Compound 6, 6-Chloro-7-methoxy-2-(4-(methylsulfonyl)phenyl)-3-[4-(piperidin-1-yl)phenyl]-2,4-dihydroindeno[1,2-c]pyrazole] |  |  | 
125 to 126 | 6.13 ± 1.42 | 2.65 ± 0.75 | more significantly than erlotinib | more significantly than erlotinib | 17.6 | COc1cc2c(cc1Cl)Cc1c-2nn(-c2ccc(Br)cc2)c1-c1ccc(N2CCCCC2)cc1 [Compound 4, 6-Chloro-7-methoxy-2-(4-bromophenyl)-3-[4-(piperidin-1-yl)phenyl]-2,4-dihydroindeno[1,2-c]pyrazole] | 19.6 ± 4.25 | 56.30 | no significant cytotoxicity
 | > 10 |  |  |  |  | COc1cc2c(cc1Cl)Cc1c-2nn(-c2ccc(C#N)cc2)c1-c1ccc(N2CCCCC2)cc1 [Compound 5, 6-Chloro-7-methoxy-2-(4-cyanophenyl)-3-[4-(piperidin-1-yl)phenyl]-2,4-dihydroindeno[1,2-c]pyrazole] |  |  | 
123 to 124 | 8.67 ± 2.18 | 2.76 ± 0.83 |  |  | 46.7 ± 7.04 | COc1cc2c(cc1Cl)Cc1c-2nn(-c2ccc(C)cc2)c1-c1ccc(N2CCCCC2)cc1 [Compound 7, 6-Chloro-7-methoxy-2-(4-methylphenyl)-3-[4-(piperidin-1-yl)phenyl]-2,4-dihydroindeno[1,2-c]pyrazole] | > 100 |  | no significant cytotoxicity
188 to 190 | > 10 |  |  |  |  | COc1cc2c(cc1Cl)Cc1c-2nn(-c2ccc(F)cc2)c1-c1ccc(N2CCCCC2)cc1 [Compound 2, 6-Chloro-7-methoxy-2-(4-fluorophenyl)-3-[4-(piperidin-1-yl)phenyl]-2,4-dihydroindeno[1,2-c]pyrazole] |  |  | 
 | 7.99 ± 1.84 | 3.49 ± 0.92 |  |  | 55.3 ± 8.68 | COc1cc2c(cc1Cl)Cc1c-2nn(-c2ccccc2)c1-c1ccc(N2CCCCC2)cc1 [Compound 1, 6-Chloro-7-methoxy-2-phenyl-3-[4-(piperidin-1-yl)phenyl]-2,4-dihydroindeno[1,2-c]pyrazole] | 95.7 ± 11.7 |  | no significant cytotoxicity
 | > 10 |  |  |  |  | COc1cc2c(cc1Cl)Cc1c-2nn(-c2ccc(Cl)cc2)c1-c1ccc(N2CCCCC2)cc1 [Compound 3, 6-Chloro-7-methoxy-2-(4-chlorophenyl)-3-[4-(piperidin-1-yl)phenyl]-2,4-dihydroindeno[1,2-c]pyrazole] |  |  | 

Structure (SMILES) | melting point [°C] | IC50 [1] [µM] | IC50 [2] [µM] | HER2 inhibition compared to erlotinib (HER2) | LCK inhibition compared to erlotinib (LCK) | IC50 (EGFR TK) [µM] | IC50 [3] [µM] | percentage of A549 cells undergoing apoptosis (A549 cells) [%] | cytotoxicity towards PBMCs (in words) [3]
C#Cc1cccc(Nc2ncnc3cc(OCCOC)c(OCCOC)cc23)c1 [Erlotinib, reference compound] |  | 19.7 ± 3.15 | 29.6 ± 5.26 |  |  |  | 44.3 ± 7.84 | 53.60 | 
